The nature of series [1]: human serum stability of the F-18 labeled peptide (HPLC purity). Type of series: in vitro ADME. Conditions: 37°C for 90 min, purity assessed by HPLC (phosphate buffer and TFA mobile phases). As to the method:
To qualify for pre-clinical and clinical use, it is necessary to establish the stability of the compound in human serum. The compound a 70 µL of human serum containing the F-18 labeled peptide (5.89 MBq/mL) was incubated at 37°C for 90 min. An aliquot was withdrawn at various intervals and the purity assessed by HPLC. The purity was evaluated in under two different conditions. Potassium hydrogen phosphate buffer system was used as a mobile phase to measure the stability of attached F-18 label. Column: C-18, Gradient: A: 10mM K2HPO4 pH:9,04; B: 10mM K2HPO4 pH:9,04/ACN 3/ 7; Flow rate: 2 mL, 5% A to 95% B in 7 min. [formula] [formula] [formula]
Trifluoroacetic acid system was used as a mobile phase to measure the stability of the entire molecule. Column: C-18, Gradient: A: 10% CH3CN: 90% H2O, B:90% CH3CN: 10% H2O containing 0.1 % TFA. [formula] [formula] [formula]

The target of series [2] is T1, human bombesin 2 receptor (GRPR) (Homo sapiens, UniProt P30550).
T1 construct: using GRPR-containing cell membranes (Perkin Elmer); purchased Perkin Elmer
T1 sequence (P30550 whole entry): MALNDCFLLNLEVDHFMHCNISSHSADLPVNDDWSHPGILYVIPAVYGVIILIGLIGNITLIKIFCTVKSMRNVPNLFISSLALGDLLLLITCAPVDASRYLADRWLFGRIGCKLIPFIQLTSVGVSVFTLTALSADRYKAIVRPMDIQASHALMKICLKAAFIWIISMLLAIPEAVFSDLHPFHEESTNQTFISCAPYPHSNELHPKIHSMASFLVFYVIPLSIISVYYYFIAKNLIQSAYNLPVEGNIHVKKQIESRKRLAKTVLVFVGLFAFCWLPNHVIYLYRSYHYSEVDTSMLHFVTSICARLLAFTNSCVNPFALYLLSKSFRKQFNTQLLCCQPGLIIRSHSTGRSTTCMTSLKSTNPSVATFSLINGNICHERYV
Kind of series: competitive receptor-binding assay (scintillation proximity assay) with 125I-[Tyr4]-Bombesin. As to the method: In vitro binding affinity and specificity of Bombesin analogs for the human bombesin 2 receptor (GRPR) were assessed via a competitive receptor-binding assay using ^125I-[Tyr^4]-Bombesin (Perkin Elmer; specific activity 81.4 TBq/mmol) as GRPR-specific radioligand. The assay was performed based on the scintillation proximity assay (SPA) technology (Carpenter JW et al., Meth Mol Biol 2002; 190:31-49) using GRPR-containing cell membranes (Perkin Elmer) and wheat germ agglutinin (WGA)-coated PVT beads (Amersham Bioscience).
Briefly, GRPR-containing membranes and WGA-PVT beads were mixed in assay buffer (50 mM Tris/HCl pH 7.2, 5 mM MgCl2, 1 mM EGTA, Complete protease inhibitor (Roche Diagnostics GmbH) and 0.3% PEI) to give final concentrations of approximately 100 µg/ml protein and 40 mg/ml PVT-SPA beads. The ligand ^125I-[Tyr^4]-Bombesin was diluted to 0.5 nM in assay buffer. The test compounds were dissolved in DMSO to give 1 mM stock solutions Later on, they were diluted in assay buffer to 8 pM - 1.5 µM.
The assay was then performed as follows: First, 10 µl of compound solution to be tested for binding were placed in white 384 well plates (Optiplate-384, Perkin-Elmer). At next, 20 µl GRPR/WGA-PVT bead mixture and 20 µl of the ligand solution were added. After 90 minutes incubation at room temperature, another 50 µl of assay buffer were added, the plate sealed and centrifuged for 10 min at 520xg at room temperature. Signals were measured in a TopCount (Perkin Elmer) for 1 min integration time per well. The IC50 was calculated by nonlinear regression using the GraFit data analysis software (Erithacus Software Ltd.). Furthermore, the KI was calculated based on the IC50 for test compound as well as the KD and the concentration of the ligand ^125I-[Tyr^4]-Bombesin. Experiments were done with quadruple samples.
The Binding affinities measured for all the cold F-19 compounds are listed Table 2.
Briefly, GRPR-containing membranes and WGA-PVT beads were mixed in assay buffer (50 mM Tris/HCl pH 7.2, 5 mM MgCl2, 1 mM EGTA, Complete protease inhibitor (Roche Diagnostics GmbH) and 0.3% PEI) to give final concentrations of approximately 100 µg/ml protein and 40 mg/ml PVT-SPA beads. The ligand ^125I-[Tyr^4]-Bombesin was diluted to 0.5 nM in assay buffer. The test compounds were dissolved in DMSO to give 1 mM stock solutions Lateron, they were diluted in assay buffer to 8 pM - 1.5 µM.
(SPA uses beads or plates that emit light when radiolabelled molecules are held near them.)

Setting [3] is: GRPR-containing cell membranes, 125I-[Tyr4]-Bombesin, 90 minutes at room temperature, Table 2, B1 = CO, read-out: Ki.

Like-named read-outs stand apart in the source and are kept apart here. *1 amine or outer side, *2 acyl side, *3 side chain or, on linkers, in order; H or OH if unused. Where a SMILES comes first, the peptide text is derived from it. [ ]: non-standard residue; d: D form. The star is where a group is joined. X3 = CC(C)[C@H](N[*:1])[C@H](O)CC(=O)[*:2]; Benzoyl(3-CN,4-F) = N#Cc1cc(C(=O)*)ccc1F; Benzoyl(3,4-F2) = O=C(c1ccc(F)c(F)c1)*; NMeH = CN[C@@H](Cc1c[nH]cn1)C(=O)O; X1 = CCC(C)C(CCC(=O)[*:2])N[*:1]; β3hI = CC[C@H](C)[C@H](N)CC(=O)O; Tle = CC(C)(C)[C@H](N)C(=O)O; β3hL = CC(C)C[C@H](N)CC(=O)O; Ava = NCCCCC(=O)O; βAla = NCCC(=O)O; Sar = CNCC(=O)O

With “4-[18]Fluoro-3-cyano-benzoyl-Arg-Ava-Gln-Trp-Ala-Val-NMeGly-His-Sta-Leu-NH2 [IIA-a-1]”, in series [1], the “stability in human serum” value is “stable in human serum”. For `CCC(C)C(CCC(=O)N[C@@H](CC(C)C)C(N)=O)NC(=O)[C@H](Cc1c[nH]cn1)NC(=O)CNC(=O)[C@@H](NC(=O)[C@H](C)NC(=O)[C@H](Cc1c[nH]c2ccccc12)NC(=O)[C@H](CCC(N)=O)NC(=O)CCCCNC(=O)c1ccc(F)c(C#N)c1)C(C)C` (stereo partly drawn) [IIB-a-17, 4-[19]-Fluoro-3-cyano-benzoyl-Ava-Gln-Trp-Ala-Val-Gly-His-4-Am,S-MeHpA-Leu-NH2] ({Benzoyl(3-CN,4-F)-Ava}-QWAVGH[X1]L-NH2), in series [2], the Ki (in general, the dissociation constant of the complex between target and ligand, obtained from inhibition or displacement) worked out at 1.9 nM.

Turning to `CCC(C)C(CCC(=O)N[C@@H](CC(C)C)C(N)=O)NC(=O)[C@H](Cc1c[nH]cn1)N(C)C(=O)CNC(=O)[C@@H](NC(=O)[C@H](C)NC(=O)[C@H](Cc1c[nH]c2ccccc12)NC(=O)[C@H](CCC(N)=O)NC(=O)CCCCNC(=O)c1ccc(F)c(F)c1)C(C)C` (stereo partly drawn) [IIB-a-50, 3,4-[19]Difluorobenzoyl-Ava-Gln-Trp-Ala-Val-Gly-NMeHis-4-Am,5-MeHpA-Leu-NH2] ({Benzoyl(3,4-F2)-Ava}-QWAVG[NMeH][X1]L-NH2), the Ki in series [2] is above 25 nM. In turn, `CC(C)C[C@H](NC(=O)C[C@@H](O)[C@@H](NC(=O)[C@H](Cc1c[nH]cn1)NC(=O)CN(C)C(=O)[C@@H](NC(=O)[C@H](C)NC(=O)[C@H](Cc1c[nH]c2ccccc12)NC(=O)[C@H](CCC(N)=O)NC(=O)CCCCNC(=O)c1ccc(F)c(F)c1)C(C)C)C(C)C)C(N)=O` [IIB-a-51] ({Benzoyl(3,4-F2)-Ava}-QWAV[Sar]H[X3]L-NH2) gave a Ki in series [2] above 25 nM. The same measure, in the same setting: the same measure for `CC(C)C[C@H](NC(=O)[C@H](Cc1ccccc1)NC(=O)[C@H](Cc1c[nH]cn1)N(C)C(=O)CCNC(=O)[C@@H](NC(=O)[C@H](C)NC(=O)[C@H](Cc1c[nH]c2ccccc12)NC(=O)[C@H](CCC(N)=O)NC(=O)CCCCNC(=O)c1ccc(F)c(F)c1)C(C)C)C(N)=O` [IIB-a-54] ({Benzoyl(3,4-F2)-Ava}-QWAV[βAla][NMeH]FL-NH2): 0.4 nM; for `CC(C)C[C@H](NC(=O)[C@H](Cc1ccccc1)NC(=O)[C@@H](Cc1c[nH]cn1)NC(=O)CCNC(=O)[C@@H](NC(=O)[C@H](C)NC(=O)[C@H](Cc1c[nH]c2ccccc12)NC(=O)[C@H](CCC(N)=O)NC(=O)CCCCNC(=O)c1ccc(F)c(F)c1)C(C)C)C(N)=O` [IIB-a-55] ({Benzoyl(3,4-F2)-Ava}-QWAV[βAla][dH]FL-NH2): 19 nM. As for `CC(C)C[C@@H](CC(=O)N[C@@H](CC(C)C)C(N)=O)NC(=O)[C@H](Cc1c[nH]cn1)NC(=O)CCNC(=O)[C@@H](NC(=O)[C@H](C)NC(=O)[C@H](Cc1c[nH]c2ccccc12)NC(=O)[C@H](CCC(N)=O)NC(=O)CCCCNC(=O)c1ccc(F)c(F)c1)C(C)C` [IIB-a-56] ({Benzoyl(3,4-F2)-Ava}-QWAV[βAla]H[β3hL]L-NH2), the inhibitory constant (Ki) in series [2] (setting [3]) is 45 nM. The same measure, in the same setting: to `CC[C@H](C)[C@@H](CC(=O)N[C@@H](CC(C)C)C(N)=O)NC(=O)[C@H](Cc1c[nH]cn1)NC(=O)CCNC(=O)[C@@H](NC(=O)[C@H](C)NC(=O)[C@H](Cc1c[nH]c2ccccc12)NC(=O)[C@H](CCC(N)=O)NC(=O)CCCCNC(=O)c1ccc(F)c(F)c1)C(C)C` [IIB-a-57] ({Benzoyl(3,4-F2)-Ava}-QWAV[βAla]H[β3hI]L-NH2) belongs above 50 nM; to `CC(C)C[C@@H](CC(=O)N[C@H](C(N)=O)C(C)(C)C)NC(=O)[C@H](Cc1c[nH]cn1)NC(=O)CCNC(=O)[C@@H](NC(=O)[C@H](C)NC(=O)[C@H](Cc1c[nH]c2ccccc12)NC(=O)[C@H](CCC(N)=O)NC(=O)CCCCNC(=O)c1ccc(F)c(F)c1)C(C)C` [IIB-a-58] ({Benzoyl(3,4-F2)-Ava}-QWAV[βAla]H[β3hL][Tle]-NH2), above 50 nM.

The values are drawn from patent EP1985624A2, “Single step method of radiofluorination of biologically active compounds or biomolecules” (Bayer Schering Pharma Aktiengesellschaft, priority 2007, dated 2008).
